Reference: publication PMC8566951, “Antifungal Activity of ToAP2D Peptide Against Sporothrix globosa” (Frontiers in Bioengineering and Biotechnology, 2021)
No end group written: not given here.

Tests used:
[1] = tested on: Candida albicans; details: ref Guilhelmelli et al., 2016; cited from earlier work
Description: (§1) As the biological characteristics of S. globosa are very similar to C. albicans, we then use ToAP2structure as a template, through reasonable molecular design and modification, to study the inhibitory e ...

[2] = ref Guilhelmelli et al., 2016; cited from earlier work
Description: as §1

[3] = tested on: S. globosa; test: Inhibition zone test (paper disk); type: cell-based, Sporothrix globosa; details: 6 µL on 5 mm paper disk, 37°C, 72 h, repeated three times, 5.00 = disk diameter
Description: S. globosa was collected from clinical patients diagnosed with cutaneous sporotrichosis at our hospital. All strains were identified as S. globosa using mycelial-to-yeast phase conversion culture and molecular identification methods. All isolates were grown on Sabouraud’s dextrose agar. After 7 days of culture, the fungal colonies were transferred to brainheart infusion broth and incubated in a rotary shaker (150 rpm/min) at 37°C for another 7 days. S. globosa was centrifuged and resuspended in PBS and diluted to 1.0 × 10^8 cfu/ml.
The antifungal activity of ToAP2A, ToAP2C, and ToAP2D against S. globosa was analyzed using the inhibition zone test. S. globosa was collected and diluted to 1.0 × 10^8 cfu/ml with a hemocytometer. We then evenly inoculated on brainheart infusion broth agar plates with 50 µL aliquots of the dilution. Paper disks with 5 mm diameter were pasted on the surface of the solid culture medium after high-pressure sterilization. ToAP2A, ToAP2C, and ToAP2D (4/2/1 mg/ml) and the control sample (physiological saline with a concentration of 0.9%) were dripped onto the filter paper with 6 µL, respectively, and cultured in 37°C for 72 h to observe whether there is a zone of inhibition. The diameter of the inhibition zone was measured and recorded with a vernier caliper. The above steps were repeated three times to calculate the average value and standard deviation of the inhibition zone diameter of each sample.

[4] = Serum stability by inhibition zone test; type: in vitro ADME; details: human serum diluted 1:1 with 0.9% normal saline, ToAP2D 4 mg/ml, 10 h at 37°C, read-out inhibition zone after 24 h
Description: The stability of ToAP2D in human serum was analyzed using the inhibition zone test. 5 ml of healthy human blood (from the physical examination center of our hospital) was extracted using a sterile syringe, stored at room temperature for 1 h, and then stored at 4°C overnight. After 24 h, the blood was centrifuged at 1,000 rpm/min for 10 min, and 50 µL of serum in the supernatant was gently sucked out with a pipette gun. The serum was diluted with 50 µL of 0.9% normal saline, and then, the antimicrobial peptide ToAP2D was dissolved in the diluted serum.
To determine the stability of ToAP2D in human serum, ToAP2D (final concentration 4 mg/ml) was mixed with the diluted serum for 0, 0.5, 1, 2, 4, 6, 8, and 10 h at 37°C, respectively. In brief, S. globosa was inoculated on brainheart infusion broth agar plates, 5.0 mm paper disks were placed on top, and 6 µL aliquots of the serumpeptide mixture were added to the paper disks at each incubation time point. After 24 h of incubation, the inhibitory zones against S. globosa were measured and recorded.

[5] = tested on: S. globosa; test: Minimal inhibitory concentration, microdilution assay; type: cell-based, Sporothrix globosa; details: brainheart infusion broth, 1 × 10^8 cfu/ml, 37°C, 7 days, at least three experiments
Description: The minimal inhibitory concentration (MIC) of ToAP2D against S. globosa was determined using the microdilution assay. In brief, twofold serial dilutions of ToAP2D were prepared in 96-well polystyrene microplates to a final volume of 100 µL. Final concentrations of ToAP2D ranged from 5 mg/ml to 0.62 μg/ml. In each plate, wells were included without peptide as control. Then, 100 µL of the liquid medium (brainheart infusion broth) was added to each well with a final concentration of 1 × 10^8 cfu/ml for S. globosa. The plates were incubated at 37°C for 7 days. In addition, 20 µL of culture from each well was inoculated on the brainheart solid medium and cultured in a constant temperature incubator at 37°C for 7 days to observe the growth of colonies. […] The experiments were performed at least three times on separate dates.

[6] = Acute toxicity, HE staining of major organs; type: in vivo; details: BALB/c mice, 60 mg/kg tail vein, organs after 24 h, n = 5
Description: To examine their toxicity, an in vivo animal study was performed. The 10 healthy BALB/c mice were randomly divided into ToAP2D group (n = 5) and the control group (n = 5). The mice in the ToAP2D group were injected with ToAP2D through the tail vein at a dose of 60 mg/kg, and the control group mice were injected with the same volume of normal saline. After 24 h, the major organs (e.g., brain, heart, liver, and kidney) of the mice were excised and fixed in 10% buffered formalin for 1 day. The tissues were then embedded in paraffin and sectioned for hematoxylin and eosin (HE) staining.

[7] = tested on: S. globosa; test: S. globosa footpad infection in mice, skin lesion area; type: in vivo, BALB/c mice; details: itraconazole gavage 60 mg/kg daily from Day 10, mean ± SD, n = 6
Description: The animal protocol was approved by the Institutional Ethics Committee for Animal Use in Research, and our animal care followed Animal Care guidelines of the Jilin University. Mice were randomly divided into study group (n = 51) and the healthy control (HC) group (n = 6). Mice in the study group were injected with 0.05 ml S. globosa suspension (1 × 10^8 cfu/ml) on their footpads after alcohol cotton ball sterilization. The condition of the skin was monitored daily. […] After that, CO2 lattice laser was used to promote ToAP2D absorption, and the mice of the study group were further divided into infection group (n = 12), laser group (n = 12), laser + ToAP2D group (n = 12), and itraconazole group (n = 12), and the antifungal treatments were given subsequently.
In the laser group, the injection feet were subjected to CO2 lattice laser 10,600 nm irradiation at room temperature with an irradiation energy density of 120 mJ/mm^2. The laser scanning area was 15 mm × 15 mm with a lattice density of 0.3 mm and 25.0% coverage rate. The laser treatment was administered every […] on Day 10, 14, 18, and 22. In the laser + ToAP2D group, mice were subjected to CO2 lattice laser irradiation with the same parameters in the laser group to assist the absorption of ToAP2D. Almost immediately after laser irradiation, the antibacterial peptide ToAP2D (4 mg/ml, diluted with 0.9% normal saline) was repeatedly rolled onto the laser-irradiated part of the footpad, until it was completely absorbed every day. In the itraconazole group, mice were gavaged with itraconazole at a dose of 60 mg/kg daily. The size of the footpads of mice was measured every 3 days and analyzed using Photoshop. On Day 18 and 26, six mice in each group were sacrificed, and their feet tissues were collected for further skin histology and immunohistochemistry studies.

FFGTLFKLGSKLIPGVMKLFSKKKER [ToAP2]
growth of Candida albicans [1]: could inhibit the growth | cytotoxic activity [2]: low cytotoxic | hemolytic activity [2]: low hemolytic

GDKLIPGVMKLFRKK [ToAP2D]
Inhibition zone (mm) mean ± standard deviation (SD) ([3]; 1 mg/ml): 5.00 ± 0.00 mm | Inhibition zone (mm) mean ± standard deviation (SD) ([3]; 2 mg/ml): 6.86 ± 0.25 mm | Inhibition zone (mm) mean ± standard deviation (SD) ([3]; 4 mg/ml): 11.56 ± 0.36 mm | antifungal activity against S. globosa after incubation in serum, compared to the original drug [4]: > 90% | minimal inhibitory concentration (MIC) [5]: 156.25 µg/mL | acute toxicity (HE staining of main organs) [6]: no acute toxicity

GAKLIPGVMKLFRKK [ToAP2C]
Inhibition zone (mm) mean ± standard deviation (SD) ([3]; 1 mg/ml): 5.00 ± 0.00 mm | Inhibition zone (mm) mean ± standard deviation (SD) ([3]; 2 mg/ml): 6.37 ± 0.27 mm | Inhibition zone (mm) mean ± standard deviation (SD) ([3]; 4 mg/ml): 8.12 ± 0.33 mm

CCC(C)n1ncn(-c2ccc(N3CCN(c4ccc(OCC5COC(Cn6cncn6)(c6ccc(Cl)cc6Cl)O5)cc4)CC3)cc2)c1=O (stereo not shown) [Itraconazole, itraconazole]
Skin lesion area (mm^2) ([7]; Day14): 27.82 ± 2.84 ^** mm^2 | Skin lesion area (mm^2) ([7]; Day18): 21.47 ± 0.92 ^*** mm^2 | Skin lesion area (mm^2) ([7]; Day22): 14.94 ± 2.93 ^** mm^2 | Skin lesion area (mm^2) ([7]; Day26): 11.81 ± 0.85 mm^2

GSKLIPGVMKLFSKK [ToAP2A]
Inhibition zone (mm) mean ± standard deviation (SD) ([3]; 1 mg/ml): 5.00 ± 0.00 mm | Inhibition zone (mm) mean ± standard deviation (SD) ([3]; 2 mg/ml): 6.59 ± 0.34 mm | Inhibition zone (mm) mean ± standard deviation (SD) ([3]; 4 mg/ml): 9.23 ± 0.34 mm
